{"source": "paper PMC6969166", "about": "“The molecular basis of pyrazinamide activity on Mycobacterium tuberculosis PanD” (Nature Communications, 2020)", "target": "Mtb PanD Arg54 to alanine (Mycobacterium tuberculosis, UniProt P9WIL3, R54A)", "type": "binding"}
{"smiles": "O=C(O)c1cnccn1", "note": "[POA, pyrazinoic acid]", "values": [{"measurement": "binding in ITC", "value": "no binding"}]}
